{"source": "PubChem BioAssay (NCI)", "note": "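These data come from cells grown in 96-well plates and exposed to compound for 48 hours at five concentrations. TGI is the concentration that stops growth completely.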", "data": [{"test_system": "OVCAR-4 ovarian", "test": "growth of human tumour cells (NCI), 48 h", "units": {"TGI": "µM"}, "values": [{"smiles": "CC(C)CC(=O)OC[n+]1ccc(-c2c(COC(=O)NC(C)C)c(COC(=O)NC(C)C)c3n2CCC3)cc1", "TGI": "> 100"}]}, {"test_system": "SK-OV-3 ovarian", "test": "growth of human tumour cells (NCI), 48 h", "units": {"TGI": "µM"}, "values": [{"smiles": "O=CC[C@H]1C(=O)C[C@@H]2CCC[C@@H]21", "TGI": "> 100"}, {"smiles": "O=[N+]([O-])C(=C1NCCN1)/C(Cl)=C(\\Cl)Br", "TGI": "> 100"}, {"smiles": "COc1cc(/C=C/C(=N\\NS(=O)(=O)c2ccc(C)cc2)c2sc(NNC(C)=O)nc2C)ccc1O", "TGI": "> 100"}, {"smiles": "Clc1cc(OC2C3CC4CC(C3)CC2C4)nc(Cl)n1", "note": "(configuration not stated)", "TGI": "> 100"}, {"smiles": "CC(=O)NNc1nc(C)c(C(=O)NNC(=O)C(=O)Nc2c(Cl)cc([N+](=O)[O-])cc2Cl)s1", "TGI": "> 100"}, {"smiles": "CC(C)CC(=O)OC[n+]1ccc(-c2c(COC(=O)NC(C)C)c(COC(=O)NC(C)C)c3n2CCC3)cc1", "TGI": "> 100"}]}, {"test_system": "TK-10 renal", "test": "growth of human tumour cells (NCI), 48 h", "units": {"TGI": "µM"}, "values": [{"smiles": "CN(C)C(=N)c1ccccc1", "TGI": "> 100"}, {"smiles": "O=CC[C@H]1C(=O)C[C@@H]2CCC[C@@H]21", "TGI": "> 100"}, {"smiles": "O=[N+]([O-])C(=C1NCCN1)/C(Cl)=C(\\Cl)Br", "TGI": "> 100"}, {"smiles": "COc1cc(/C=C/C(=N\\NS(=O)(=O)c2ccc(C)cc2)c2sc(NNC(C)=O)nc2C)ccc1O", "TGI": "> 100"}, {"smiles": "Clc1cc(OC2C3CC4CC(C3)CC2C4)nc(Cl)n1", "note": "(configuration not stated)", "TGI": "> 100"}, {"smiles": "CC(=O)NNc1nc(C)c(C(=O)NNC(=O)C(=O)Nc2c(Cl)cc([N+](=O)[O-])cc2Cl)s1", "TGI": "> 100"}, {"smiles": "CC(C)CC(=O)OC[n+]1ccc(-c2c(COC(=O)NC(C)C)c(COC(=O)NC(C)C)c3n2CCC3)cc1", "TGI": "> 100"}]}, {"test_system": "CCRF-CEM leukemia", "test": "growth of human tumour cells (NCI), 48 h", "units": {"TGI": "µM"}, "values": [{"smiles": "O=CC[C@H]1C(=O)C[C@@H]2CCC[C@@H]21", "TGI": "> 100"}, {"smiles": "O=[N+]([O-])C(=C1NCCN1)/C(Cl)=C(\\Cl)Br", "TGI": 28.5}, {"smiles": "COc1cc(/C=C/C(=N\\NS(=O)(=O)c2ccc(C)cc2)c2sc(NNC(C)=O)nc2C)ccc1O", "TGI": "> 100"}, {"smiles": "Clc1cc(OC2C3CC4CC(C3)CC2C4)nc(Cl)n1", "note": "(configuration not stated)", "TGI": 38.8}, {"smiles": "CC(=O)NNc1nc(C)c(C(=O)NNC(=O)C(=O)Nc2c(Cl)cc([N+](=O)[O-])cc2Cl)s1", "TGI": 93.4}, {"smiles": "CC(C)CC(=O)OC[n+]1ccc(-c2c(COC(=O)NC(C)C)c(COC(=O)NC(C)C)c3n2CCC3)cc1", "TGI": "> 100"}]}, {"test_system": "XF 498 CNS", "test": "growth of human tumour cells (NCI), 48 h", "units": {"TGI": "µM"}, "values": [{"smiles": "CN(C)C(=N)c1ccccc1", "TGI": "> 100"}, {"smiles": "O=CC[C@H]1C(=O)C[C@@H]2CCC[C@@H]21", "TGI": "> 100"}]}, {"test_system": "OVCAR-5 ovarian", "test": "growth of human tumour cells (NCI), 48 h", "units": {"TGI": "µM"}, "values": [{"smiles": "CN(C)C(=N)c1ccccc1", "TGI": "> 100"}, {"smiles": "O=CC[C@H]1C(=O)C[C@@H]2CCC[C@@H]21", "TGI": "> 100"}, {"smiles": "O=[N+]([O-])C(=C1NCCN1)/C(Cl)=C(\\Cl)Br", "TGI": "> 100"}, {"smiles": "COc1cc(/C=C/C(=N\\NS(=O)(=O)c2ccc(C)cc2)c2sc(NNC(C)=O)nc2C)ccc1O", "TGI": "> 100"}, {"smiles": "Clc1cc(OC2C3CC4CC(C3)CC2C4)nc(Cl)n1", "note": "(configuration not stated)", "TGI": 44.2}, {"smiles": "CC(=O)NNc1nc(C)c(C(=O)NNC(=O)C(=O)Nc2c(Cl)cc([N+](=O)[O-])cc2Cl)s1", "TGI": 93.4}, {"smiles": "CC(C)CC(=O)OC[n+]1ccc(-c2c(COC(=O)NC(C)C)c(COC(=O)NC(C)C)c3n2CCC3)cc1", "TGI": "> 100"}]}, {"test_system": "ACHN renal", "test": "growth of human tumour cells (NCI), 48 h", "units": {"TGI": "µM"}, "values": [{"smiles": "O=CC[C@H]1C(=O)C[C@@H]2CCC[C@@H]21", "TGI": "> 100"}, {"smiles": "O=[N+]([O-])C(=C1NCCN1)/C(Cl)=C(\\Cl)Br", "TGI": "> 100"}, {"smiles": "COc1cc(/C=C/C(=N\\NS(=O)(=O)c2ccc(C)cc2)c2sc(NNC(C)=O)nc2C)ccc1O", "TGI": "> 100"}, {"smiles": "Clc1cc(OC2C3CC4CC(C3)CC2C4)nc(Cl)n1", "note": "(configuration not stated)", "TGI": 32.8}, {"smiles": "CC(=O)NNc1nc(C)c(C(=O)NNC(=O)C(=O)Nc2c(Cl)cc([N+](=O)[O-])cc2Cl)s1", "TGI": "> 100"}, {"smiles": "CC(C)CC(=O)OC[n+]1ccc(-c2c(COC(=O)NC(C)C)c(COC(=O)NC(C)C)c3n2CCC3)cc1", "TGI": "> 100"}]}, {"test_system": "HL-60(TB) leukemia", "test": "growth of human tumour cells (NCI), 48 h", "units": {"TGI": "µM"}, "values": [{"smiles": "CN(C)C(=N)c1ccccc1", "TGI": "> 100"}, {"smiles": "O=CC[C@H]1C(=O)C[C@@H]2CCC[C@@H]21", "TGI": "> 100"}, {"smiles": "O=[N+]([O-])C(=C1NCCN1)/C(Cl)=C(\\Cl)Br", "TGI": 28.2}, {"smiles": "COc1cc(/C=C/C(=N\\NS(=O)(=O)c2ccc(C)cc2)c2sc(NNC(C)=O)nc2C)ccc1O", "TGI": "> 100"}, {"smiles": "Clc1cc(OC2C3CC4CC(C3)CC2C4)nc(Cl)n1", "note": "(configuration not stated)", "TGI": 12.9}, {"smiles": "CC(=O)NNc1nc(C)c(C(=O)NNC(=O)C(=O)Nc2c(Cl)cc([N+](=O)[O-])cc2Cl)s1", "TGI": 84.7}, {"smiles": "CC(C)CC(=O)OC[n+]1ccc(-c2c(COC(=O)NC(C)C)c(COC(=O)NC(C)C)c3n2CCC3)cc1", "TGI": "> 100"}]}, {"test_system": "HCC-2998 colon", "test": "growth of human tumour cells (NCI), 48 h", "units": {"TGI": "µM"}, "values": [{"smiles": "CN(C)C(=N)c1ccccc1", "TGI": "> 100"}, {"smiles": "O=CC[C@H]1C(=O)C[C@@H]2CCC[C@@H]21", "TGI": "> 100"}, {"smiles": "O=[N+]([O-])C(=C1NCCN1)/C(Cl)=C(\\Cl)Br", "TGI": "> 100"}, {"smiles": "COc1cc(/C=C/C(=N\\NS(=O)(=O)c2ccc(C)cc2)c2sc(NNC(C)=O)nc2C)ccc1O", "TGI": "> 100"}, {"smiles": "Clc1cc(OC2C3CC4CC(C3)CC2C4)nc(Cl)n1", "note": "(configuration not stated)", "TGI": 4.28}]}]}
